What was measured:
Assay type in all cases: in vivo
Nicotiana benthamiana = assay: Test Example 4: growth promotion under low-temperature stress by hydroponics of Nicotiana benthamiana, 10 ppm; details: 10 ppm in medium, low-temperature stress 7 days at 1.5±1.0° C., green leaf area 3 days later, equation (1)
Method: Test for Evaluating Growth Promotion Under Low-Temperature Stress by Hydroponics of Nicotiana benthamiana
A DMSO solution, which contained one of the compounds 1, 8, 9, 13, 18, 19, 22, 23, 29, 32, 33, 34, 39, 40, 41, 43, 44, 51, 53, 54, 55, 56, 58, 60, 62, 63, 64, 65, 67, 69, 71, 73, 74, 75, 77, 79, 82, 83 and 86 of the present invention at a concentration of 10,000 ppm, was prepared. The DMSO solution of the compound of the present invention was added at a volume ratio of 1/1,000 to the Murashige•Scoog medium of a ½-fold concentration (a medium containing 2.3 g of mixed salts for the Murashige•Scoog medium (manufactured by Wako Pure Chemical Industries, Ltd.), 200 mg of Myo-inositol (manufactured by Sigma-Aldrich Co. LLC.), 2 mg of nicotinic acid (manufactured by Wako Pure Chemical Industries, Ltd.), 2 mg of pyridoxine hydrochloride (manufactured by Wako Pure Chemical Industries, Ltd.), 20 mg of thiamine hydrochloride (manufactured by Wako Pure Chemical Industries, Ltd.), 20 g of sucrose (manufactured by Wako Pure Chemical Industries, Ltd.), and 1 g of MES (manufactured by DOJINDO LABORATORIES) per 1 L of water and having pH adjusted to 5.8), thereby preparing a medium containing the compound of the present invention at a concentration of 10 ppm.
Seeds of Nicotiana benthamiana were seeded in the 5 μL of the medium and cultured overnight at 22° C. Thereafter, 45 μL of the medium containing the compound of the present invention at a concentration of 10 ppm was added thereto, and the seeds are cultivated for 7 days at 22° C., an illuminance of 4,000 lux, and a day length of 16 hours, and the nursery plants raised from the Nicotiana benthamiana were treated with the compound. Moreover, instead of the above medium, a test plot, which was obtained by performing the same treatment by using a medium prepared by adding DMSO to the Murashige•Scoog medium of ½-fold concentration at a volume ratio of 1/1,000, was used as a control plot not treated with the compound.
The nursery plants of the Nicotiana benthamiana treated with the compound were subjected to low-temperature treatment by being cultivated for 7 days at 1.5±1.0° C., an illuminance of 2,000 lux, and a day length of 16 hours.
The nursery plants of the Nicotiana benthamiana having undergone the low-temperature stress treatment were cultivated for 3 days at 22° C., an illuminance of 4,000 lux, and a day length of 16 hours. Thereafter, the area of green leaf was quantified by Scanalyzer HTS (manufactured by LemnaTec GmbH). Moreover, the value of the control plot not treated with the compound that had not yet been subjected to the low-temperature stress treatment was measured in the same manner. A value of a relative leaf area was calculated based on the following equation (1), and if the value of a relative leaf area was 5 or greater, the compound was evaluated to have a mitigating effect. As a result of the evaluation, it was confirmed that when the plant was treated with one of the compounds 1, 8, 9, 13, 18, 19, 22, 23, 29, 32, 33, 34, 39, 40, 41, 43, 44, 51, 53, 54, 55, 56, 58, 60, 62, 63, 64, 65, 67, 69, 71, 73, 74, 75, 77, 79, 82, 83 and 86 of the present invention at 10 ppm, the value of a relative leaf area was 5 or greater, compared to the area of green leaf of the control plot not treated with compound. Accordingly, it was confirmed that the treatment using the compound of the present invention brings about a growth promotion effect.
Relative leaf area=100*(a green area of a plot treated with the compound of the present invention−a green area of a control plot not treated with the compound of the present invention)/(a green area of a control plot not treated with the compound of the present invention that has not yet been subjected to low-temperature stress treatment−a green area of a control plot not treated with the compound of the present invention) Equation (1): […]

[1] = tested on: Rice (variety: Nipponbare); assay: Test Example 1: promotion of root growth by hydroponics of rice, 10 ppm; details: Oryza sativa, hydroponic solution containing the test compound at 10 ppm, average of 4 or 5 individuals, read-out: Relative value of length of seminal root (%-untreated control plot)
Procedure, shortened: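 Surface-sterilised seeds germinated 3 days in the dark at 28° C in hydroponic solution with compound at 10 ppm, then grown 3 days hydroponically with compound at 10 ppm (26° C, 4,000 lux, 16 h day, 50% humidity). Seminal root length measured by image analysis, averaged over 4 or 5 plants per plot.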

[2] = tested on: Corn seeds (variety: Pioneer 120 31P41); assay: Test Example 14: growth promotion under low-temperature stress by soil drench treatment of corn; details: soil drench 20 ml, low-temperature stress 5 days at 2.5° C., health score 0-5, average of 4 individuals; for change in vivo at 3 ppm: concentration tested 3 ppm
Method: Test for Evaluating Growth Promotion Under Low-Temperature Stress by Soil Drench Treatment of Corn
Corn seeds (variety: Pioneer 120 31P41) were seeded in a culture soil (Aisai) in a plastic pot (φ55 mm×height of 58 mm), and cultivated for 7 days at 20-25° C., an illuminance of about 5,000 lux, and a day length of 16 hours.
A DMSO solution, which contained one of the compounds 1 to 9, 16, 17, 20, 23, 24, 28 to 32, 34, 45, 48, 50, 82 and 85 of the present invention at a concentration of 1,000-fold concentration of each test concentration, was prepared, and then diluted with distilled water to obtain each test solution. After that, 20 ml of the obtained test solution was used to perform soil drench treatment on the foot of the test plants. The test plants were cultivated for 2 days under the conditions of a temperature of 27° C., a humidity of 40-80%, an illuminance of about 5,000 lux, and a day length of 16 hours. This was used as a test plot treated with the compound. A plot having undergone the soil drench treatment with 20 ml of a 0.1% DMSO aqueous solution instead of the above DMSO solution containing the compound was used as an untreated control plot.
The plants having undergone the soil drench treatment were cultivated for 5 days under the conditions of a temperature of 2.5° C., a humidity of 40-80%, an illuminance of about 5,000 lux, and a day length of 16 hours, thereby exposing to low-temperature stress. After the exposure to the low-temperature stress, the plants were cultivated for 4 days under the conditions of a temperature of 27° C., a humidity of 40-80%, an illuminance of about 5,000 lux, and a day length of 16 hours.
After the cultivation, the health of each plant was scored according to the following evaluation index.
5: 4 or more leaves in which ⅔ or more of the area was healthy
4: 3 leaves in which ⅔ or more of the area was healthy
3: 2 leaves in which ⅔ or more of the area was healthy
2: 1 leaf in which ⅔ or more of the area was healthy
1: No leaf in which ⅔ or more of the area was healthy
An average of the scores of the health of 4 individuals was determined.

[3] = tested on: Rice (variety: Nipponbare); assay: Test Example 2: promotion of root growth by hydroponics of rice, 1 ppm; details: hydroponic solution containing the test compound at 1 ppm, average of 4 or 5 individuals
Method: (§1) Test for Evaluating Promotion of Root Growth by Hydroponics of Rice
(§2) Rice (variety: Nipponbare)
A DMSO solution, which contained one of the compounds 1, 3, 11, 12, 14, 15, 17, 21, 28, 30, 33, 34, 35, 36, 37, 38, 40, 41, 43, 44, 45, 46, 47, 49, 50, 51, 52, 53, 54, 55, 56, 61, 62, 63, 65, 67, 68, 69, 70, 73, 74, 75, 76, 77, 80, 82, 83, 85 and 86 of the present invention at a concentration of 10,000 ppm, was added to Hoagland hydroponic solution (Hoagland and Arnon, California Agricultural Experiment Station 1950 Circular 347 pp. 34) of ¼-fold concentration at a volume ratio of 1/10,000. In this manner, hydroponic solutions containing one of the compounds 1, 3, 11, 12, 14, 15, 17, 21, 28, 30, 33, 34, 35, 36, 37, 38, 40, 41, 43, 44, 45, 46, 47, 49, 50, 51, 52, 53, 54, 55, 56, 61, 62, 63, 65, 67, 68, 69, 70, 73, 74, 75, 76, 77, 80, 82, 83, 85 and 86 of the present invention at 1 ppm were prepared respectively. As an untreated control plot, a hydroponic solution obtained by adding DMSO to Hoagland hydroponic solution of ¼-fold concentration at a volume ratio of 1/10,000 was used. Rice seeds were soaked in a 1% aqueous sodium hypochlorite solution for 10 minutes, then soaked in a 70% ethanol solution for surface sterilization, and then washed with distilled water. The sterilized seeds were soaked in a hydroponic solution containing the test compound described above at 1 ppm and incubated in a dark place for 3 days at 28° C. to perform treatment for hastening germination.
(§3) Thereafter, 30 ml of hydroponic solution containing the test compound at 1 ppm was dispensed in a plastic tube (diameter of 20 mm×height of 113 mm) of which the side was covered with cardboard to block light. A float prepared using a styrene board and vinyl mesh was floated, and the rice seeds that had undergone the treatment for hastening germination were placed on the float on the surface of the hydroponic solution. The seeds were cultivated for 3 days at 26° C., an illuminance of 4,000 lux of the top surface of the tube, a humidity of 50%, and a day length of 16 hours.
The nursery plants of rice obtained after cultivation were measured in terms of the length of seminal root by using WinRHIZO system (manufactured by Regent Instruments Inc). For each test plot, an average of the measured values of the seminal root of 4 or 5 individuals was determined.

[4] = tested on: Rice (variety: Nipponbare); assay: Test Example 3: promotion of root growth by hydroponics of rice, 0.1 ppm; details: hydroponic solution containing the test compound at 0.1 ppm, average of 4 or 5 individuals
Method: as §1, §2
A DMSO solution, which contained one of the compounds 2, 6, 7, 16, 20, 33, 34, 36, 37, 38, 40, 41, 43, 44, 45, 46, 47, 48, 50, 51, 52, 53, 54, 55, 56, 61, 64, 67, 68, 71, 72, 73, 74, 75, 76, 79, 80, 81 and 83 of the present invention at a concentration of 1,000 ppm, was added to Hoagland hydroponic solution (Hoagland and Arnon, California Agricultural Experiment Station 1950 Circular 347 pp. 34) of ¼-fold concentration at a volume ratio of 1/10,000. In this manner, hydroponic solutions containing one of the compounds 2, 6, 7, 16, 20, 33, 34, 36, 37, 38, 40, 41, 43, 44, 45, 46, 47, 48, 50, 51, 52, 53, 54, 55, 56, 61, 64, 67, 68, 71, 72, 73, 74, 75, 76, 79, 80, 81 and 83 of the present invention at 0.1 ppm were prepared respectively. As an untreated control plot, a hydroponic solution obtained by adding DMSO to Hoagland hydroponic solution of ¼-fold concentration at a volume ratio of 1/10,000 was used.
Rice seeds were soaked in a 1% aqueous sodium hypochlorite solution for 10 minutes, then soaked in a 70% ethanol solution for surface sterilization, and then washed with distilled water. The sterilized seeds were soaked in a hydroponic solution containing the test compound described above at 0.1 ppm and incubated in a dark place for 3 days at 28° C. to perform treatment for hastening germination.
as §3, with “at 0.1” for “at 1”
The nursery plants of rice obtained after culturing were measured in terms of the length of seminal root by using WinRHIZO system (manufactured by Regent Instruments Inc). For each test plot, an average of the measured values of the seminal root of 4 or 5 individuals was determined.

[5] = Zea mays, 120 h, read-out: Relative value of score (%- untreated control plot)

Row | Compound | relative leaf area at 10 ppm (Nicotiana benthamiana) [%] | change in vivo at 10 ppm [1] [%] | change in vivo at 3 ppm [2, 5] [%] | Relative value of length of seminal root (%-untreated control plot) [3] [%] | Relative value of score (%- untreated control plot) ([2]; concentration tested 10 ppm) [%] | also measured
1 | COC(=O)c1cc2cc(C(F)(F)F)ccc2[nH]1 [Compound 8, methyl 5-trifluoromethylindole-2-carboxylate] | ≥ 5 | > 5 | > 5 |  |  | 
2 | COC(=O)c1nc2ccccc2s1 [Compound 30] |  |  |  | >5 | >5 | 
3 | COC(=O)c1cc2c(C(F)(F)F)cccc2[nH]1 [Compound 6] |  |  |  |  | >5 | Relative value of length of seminal root (%-untreated control plot) [4]: >5%
4 | COC(=O)c1cc2ccc(C(F)(F)F)cc2o1 [Compound 48] |  |  |  |  |  | change in vivo at 0.1 ppm ([4]; Oryza sativa, read-out: Relative value of length of seminal root (%-untreated control plot)): > 5%; change in vivo at 10 ppm ([2]; Zea mays, 120 h, concentration tested 10 ppm, read-out: Relative value of score (%- untreated control plot)): > 5%
5 | O=C(O)c1nc2cccnc2[nH]1 [Compound 28] |  |  |  | >5 | >5 | 
6 | COC(=O)c1nc2cc(C(F)(F)F)ccc2s1 [Compound 29, methyl 5-trifluoromethylbenzothiazole-2-carboxylate] | ≥ 5 | > 5 | > 5 |  |  | 

— US20150289512A1, “METHOD FOR PROMOTING PLANT GROWTH” (SUMITOMO CHEMICAL COMPANY, LIMITED, priority 2012, published 2015)
